Data taken from patent US9611286B2, “Ruthenium carbon monoxide releasing molecules and uses thereof” (Alfama, Inc., priority 2011, dated 2017).

Tests used:
[1] = Quantification of COHb in peripheral blood; format: in vivo, C57BL/6 mice; details: infected mice, day 3 after infection
Method: Blood was collected from the tail of the mice to capillary tubes (VWR) with heparin (100 i.u./ml in PBS 1×; LEO Pharma Inc.), transferred into AVOXimeter 4000 cuvettes (ITC) where the levels of carboxyhemoglobin (COHb), oxyhemoglobin (02Hb) and methemoglobin (MetHb) were measured in a portable AVOXimeter 4000 CO-oximeter (ITC). Results are shown as mean percentage of total hemoglobin species in circulation.

[2] = Determination of CO in tissues; format: in vivo; details: one hour after i.v. administration, non-infected mice
Method: It is hypothesized that Compound 1 promotes/increases erythrophagocytosis.
CO was quantified in different tissues as previously described (see, e.g., Vreman et al., Anal Biochem (2005) 341:280-289). Briefly, CO was liberated as gas in a closed vial by adding 25 μL of water and 5 μL of sulfosalicylic acid (SSA, 30% [wt/vol]) to 30 μL of diluted sample after being homogenized. The vials were incubated on ice for at least 10 min before being analyzed. The gas in the headspace of the vials was analyzed quantitatively with a gas chromatograph (GC) equipped with a reducing-compound photometry detector (RCP detector) (Peak Laboratories, Mountain View, Calif.), which allows to quantify CO in gas at concentrations as low as 1-2 parts per billion (ppb). The amount of CO was calculated using a calibration curve prepared from CO standards. Briefly, blood was collected from the tail of the mice to capillary tubes (VWR) with heparin (100 i.u./ml in PBS 1×; LEO Pharma Inc.), transferred into AVOXimeter 4000 cuvettes (ITC) where the levels of carboxyhemoglobin (COHb), oxyhemoglobin (O2Hb) and methemoglobin (MetHb) were measured in a portable AVOXimeter 4000 CO-oximeter (ITC). Results are shown as mean percentage of total hemoglobin species in circulation.

P. berghei ANKA GFP = format: in vivo, C57BL/6 mice; details: treated twice daily days 2-3; observed from about day 5 to day 8 of infection
Method: It has previously been shown that administration of CO by inhalation protects P. berghei ANKA infected C57BL/6 mice from developing ECM (see, e.g., Pamplona et al. Nat Med (2007) 13:703-710). The inventors questioned whether CO-RMs could mimic the protection conferred by CO inhalation in P. berghei ANKA infection. To this end, a known ruthenium CORM, Ru(CO)3Cl2, also referred to herein as CORM-2, was tested on different schedules of treatment and doses in P. berghei ANKA infected C57BL/6 mice (data not shown).
Red blood cells infected with green fluorescent protein (GFP)-transgenic P. berghei ANKA and P. berghei ANKA was used to infect mice (see, e.g., Franke-Fayard et al. Mol Biochem Parasitol (2004) 137:23-33). Cryopreserved parasites were passed once through C57BL/6 or DBA-2 mice before being used to infect experimental animals. C57BL/6 or DBA-2, 6- to 8-wk-old mice (sex matched in each experiment) were infected by intra-peritoneal (i.p.) injection of 10^6 infected RBCs. The infected mice were monitored daily for clinical symptoms of experimental cerebral malaria (ECM) including hemi- or paraplegia, head deviation, tendency to roll over on stimulation, ataxia and convulsions, or ALI, including dyspnea. Mice showing severe signs of ECM at day 5, 6 or 7 post-infection (p.i.) and ALI between days 7 and 9 were sacrificed. Parasitemia was assessed by flow cytometry for mice infected with GFP-expressing P. berghei ANKA, using tail blood, as previously described (see, e.g., Pamplona et al., Nat Med (2007) 13:703-710). Mean parasitemia is expressed as percentage of infected red blood cells. For mice infected with non-GFP P. berghei parasitemia was assessed daily by microscopic counting of Giemsa-stained thin blood smears. Mean parasitemia is expressed as percentage of infected red blood cells. Survival is expressed as percentage.
In order to evaluate the clinical presentation of experimental cerebral malaria, a classification was used in clinical stages from 0 to 4 (see, e.g., Bienvenu et al., Acta Trop (2008) 106:104-8; Franklin et al., Proc Natl Acad Sci USA (2011) 108:3689-94). Briefly, stage 0 indicates no detectable clinical symptoms, stage 1, ruffled fur; stage 2, ruffled fur and unbalancing; stage 3, limb paralysis and respiratory distress and stage 4, convulsions, coma or death. The mice were clinically classified before and after the treatment to evaluate the clinical recovery.
CORM-2 (Sigma-Aldrich) and Compound 2 were solubilized using 10% dimethyl sulfoxide (DMSO; Sigma-Aldrich) in PBS. CORM-3 and Compound 1 were solubilized in PBS (lx). CORM-2 solution (20 mg/kg of body weight) was administered intravenously (i.v.) according to the chosen schedules. […] As vehicle control, we used a solution of 10% DMSO in PBS administered i.v. The concentrations of CORM-2 used in the present study were based on previous reports (see, e.g., Chen et al. Am. J. Pathol. (2009) 175:422-429; Sun et al., World. J. Gastroenterol. (2008) 14:547-553). Artesunate is presented as a powder of artesunic acid. Artesunate (AS) solution was prepared by dissolving 60 mg of anhydrous artesunic acid in 1 ml of sodium bicarbonate (5%) to form sodium artesunate and then diluted in 5 ml of NaCl (0.9%). An AS solution (i.p.) was administered at 40 mg/Kg/day, as described previously (see, e.g., Bienvenu, Acta Trop (2008) 106:104-108). The AS treatment was started when the infected non-treated mice presented the clinical stage 1 for experimental cerebral malaria.

SMILES: C[SH]([C@@H]1OC(CO)[C@H](O)[C@H](O)C1O)[Ru]([Cl])([Cl])([CH]=O)([CH]=O)[CH]=O (stereo partly drawn) [Compound 1, Tricarbonyldichloro(methylthiogalactopyranoside) Ru(II)]
- COHb levels in the blood [1]: without causing measurable increase in COHb levels
- levels of CO in organs [2]: higher levels of CO in the liver and spleen
- effect on parasitemia (P. berghei ANKA GFP): small but significant arrest in parasitemia
